Legend:
wheat = assay: Test B pre/postemergence wheat; format: in vivo, Triticum aestivum; conditions: for Plant response rating, Wheat: Rate 250 g/ha
Summary of the method: (§1)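 Test chemicals in a non-phytotoxic solvent mixture with surfactant were sprayed preemergence onto planted seeds and postemergence onto plants 2 to 18 cm tall (1- to 4-leaf stage). After twelve to sixteen days in a greenhouse, injury was visually rated against untreated controls from 0 (no effect) to 10 (complete control).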

surinam grass = assay: Test B pre/postemergence surinam grass; format: in vivo, Brachiaria decumbens
Summary of the method: as §1

wild oat = assay: Test B pre/postemergence wild oat; format: in vivo, Avena fatua; conditions: for Plant response rating, Wild oats: Rate 250 g/ha
Summary of the method: as §1

duck salad = assay: Test B flood test duck salad; format: in vivo, Heteranthera limosa
Summary of the method: (§2)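 Plants were grown to the 2-leaf stage before treatment with test chemical, then held in a greenhouse for twelve to sixteen days. Injury was visually rated against untreated controls on a 0–10 scale, where 0 is no effect and 10 is complete control.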

bedstraw = assay: Test B pre/postemergence bedstraw; format: in vivo, Galium aparine
Summary of the method: as §1

rice = assay: Test B flood test rice; format: in vivo, Oryza sativa
Summary of the method: as §2

pigweed = assay: Test B pre/postemergence pigweed; format: in vivo, Amaranthus retroflexus
Summary of the method: as §1

rape = assay: Test B pre/postemergence rape; format: in vivo, Brassica napus
Summary of the method: as §1

crabgrass = assay: Test B pre/postemergence crabgrass; format: in vivo, Digitaria sanguinalis
Summary of the method: as §1

smallflower flatsedge = assay: Test B flood test smallflower flatsedge; format: in vivo, Cyperus difformis
Summary of the method: as §2

purple nutsedge = assay: Test B pre/postemergence purple nutsedge; format: in vivo, Cyperus rotundus
Summary of the method: as §1

corn = assay: Test B pre/postemergence corn; format: in vivo, Zea mays
Summary of the method: as §1

soybean = assay: Test B pre/postemergence soybean; format: in vivo, Glycine max
Summary of the method: as §1

velvetleaf = assay: Test B pre/postemergence velvetleaf; format: in vivo, Abutilon theophrasti; conditions: for Plant response rating, Velvetleaf: Rate 250 g/ha
Summary of the method: as §1

blackgrass = assay: Test B pre/postemergence blackgrass; format: in vivo, Alopecurus myosuroides
Summary of the method: as §1

sugar beet = assay: Test B pre/postemergence sugar beet; format: in vivo, Beta vulgaris; conditions: for Plant response rating, Sugarbeets: Rate 250 g/ha
Summary of the method: as §1

[1] = Postemergence, Rate 125 g/ha, scale of 0 to 10 where 0 is no effect and 10 is complete control
[2] = Preemergence, Rate 62 g/ha, scale 0 to 10 (0 no effect, 10 complete control)
[3] = Preemergence, Rate 125 g/ha, 0 is no effect, 10 is complete control
[4] = Preemergence, scale of 0 to 10 where 0 is no effect and 10 is complete control
[5] = Preemergence, Rate 500 g/ha, scale 0 to 10 (0 no effect, 10 complete control)
[6] = Rate 62 g/ha, Postemergence, scale of 0 to 10 where 0 is no effect and 10 is complete control
[7] = Postemergence, scale 0 to 10, 0 is no effect, 10 is complete control
[8] = Rate 500 g/ha, Postemergence, scale 0 to 10, 0 no effect, 10 complete control
[9] = Postemergence, Rate 62 g/ha, scale 0 to 10, 0 is no effect, 10 is complete control
[10] = Postemergence, Rate 250 g/ha, scale 0 to 10, 0 no effect, 10 complete control
[11] = Preemergence, Rate 125 g/ha, scale 0 to 10 (0 no effect, 10 complete control)
[12] = Preemergence, Rate 250 g/ha, scale of 0 to 10 where 0 is no effect and 10 is complete control
[13] = Rate 125 g/ha, Postemergence, scale 0 to 10, 0 no effect, 10 complete control
[14] = Rate 250 g/ha, headed Pre-emergence (flood test species), scale 0 to 10 (0 no effect, 10 complete control)
[15] = Rate 500 g/ha, headed Pre-emergence (flood test species), scale 0 to 10 (0 no effect, 10 complete control)
[16] = Rate 1000 g/ha, Pre-emergence (as headed), scale 0 to 10
[17] = Rate 2000 g/ha, Pre-emergence (as headed), scale 0 to 10
[18] = Rate 250 g/ha, Postemergence, scale 0 to 10, 0 is no effect, 10 is complete control

Compound: CCn1c(=O)on(C(=O)N(c2ccc(F)cc2)C(C)C)c1=O [Compound 107]
- Wheat plant response rating (wheat; [1]): 5
- Wheat plant response rating (wheat; [2]): 0
- Wheat plant response rating (0 to 10 scale) (wheat; [3]): 5
- Plant response rating, Wheat (wheat; [4]): 7
- Wheat plant response rating (wheat; [5]): 8
- Wheat plant response rating (wheat; [6]): 2
- Plant response rating, Wheat (wheat; [7]): 7
- Wheat plant response rating (wheat; [8]): 8
- B. signalgrass plant response rating (surinam grass; [9]): 7
- B. signalgrass plant response rating (surinam grass; [10]): 8
- B. signalgrass plant response rating (surinam grass; [2]): 5
- Plant response rating, B. signalgrass (surinam grass; [11]): 7
- Plant response rating, B. signalgrass (surinam grass; [12]): 10
- B. signalgrass plant response rating (surinam grass; [5]): 10
- B. signalgrass plant response rating (surinam grass; [13]): 7
- B. signalgrass plant response rating (surinam grass; Rate 500 g/ha, Postemergence, scale of 0 to 10 where 0 is no effect and 10 is complete control): 8
- Wild oats plant response rating (wild oat; [1]): 3
- Wild oats plant response rating (wild oat; [2]): 9
- Wild oats plant response rating (0 to 10 scale) (wild oat; [3]): 9
- Plant response rating, Wild oats (wild oat; [4]): 10
- Wild oats plant response rating (wild oat; [5]): 10
- Wild oats plant response rating (wild oat; [6]): 0
- Plant response rating, Wild oats (wild oat; [7]): 5
- Wild oats plant response rating (wild oat; [8]): 9
- Ducksalad plant response rating (duck salad; [14]): 0
- Plant response rating, Ducksalad (duck salad; [15]): 0
- Ducksalad plant response rating (duck salad; [16]): 0
- Ducksalad plant response rating (duck salad; [17]): 0
- Bedstraw plant response rating (bedstraw; [9]): 2
- Bedstraw plant response rating (bedstraw; [10]): 4
- Bedstraw plant response rating (bedstraw; [2]): 2
- Plant response rating, Bedstraw (bedstraw; [11]): 7
- Plant response rating, Bedstraw (bedstraw; [12]): 10
- Bedstraw plant response rating (bedstraw; [5]): 10
- Bedstraw plant response rating (bedstraw; [13]): 3
- Bedstraw plant response rating (bedstraw; [8]): 9
- Rice plant response rating (rice; [14]): 0
- Plant response rating, Rice (rice; [15]): 0
- Rice plant response rating (rice; [16]): 0
- Rice plant response rating (rice; [17]): 0
- Redroot pigweed plant response rating (pigweed; [1]): 0
- Redroot pigweed plant response rating (pigweed; [2]): 10
- Plant response rating, Redroot pigweed (pigweed; [11]): 10
- Plant response rating, Redroot pigweed (pigweed; [12]): 10
- Redroot pigweed plant response rating (pigweed; [5]): 10
- Redroot pigweed plant response rating (pigweed; [6]): 0
- Plant response rating, Redroot pigweed (pigweed; [18]): 5
- Redroot pigweed plant response rating (pigweed; [8]): 8
- Rape plant response rating (rape; [1]): 2
- Rape plant response rating (rape; [10]): 3
- Rape plant response rating (rape; [2]): 3
- Plant response rating, Rape (rape; [11]): 8
- Plant response rating, Rape (rape; [12]): 9
- Rape plant response rating (rape; [5]): 10
- Rape plant response rating (rape; [6]): 0
- Rape plant response rating (rape; [8]): 8
- Crabgrass plant response rating (crabgrass; [1]): 8
- Crabgrass plant response rating (crabgrass; [10]): 9
- Crabgrass plant response rating (crabgrass; [2]): 10
- Plant response rating, Crabgrass (crabgrass; [11]): 10
- Plant response rating, Crabgrass (crabgrass; [12]): 10
- Crabgrass plant response rating (crabgrass; [5]): 10
- Crabgrass plant response rating (crabgrass; [6]): 8
- Crabgrass plant response rating (crabgrass; [8]): 9
- S. Flatsedge plant response rating (smallflower flatsedge; Pre-emergence, Rate 1000 g/ha, scale 0 to 10 (0 no effect, 10 complete control)): 0
- S. Flatsedge plant response rating (smallflower flatsedge; [14]): 0
- Plant response rating, S. Flatsedge (smallflower flatsedge; [15]): 0
- S. Flatsedge plant response rating (smallflower flatsedge; [17]): 5
- Nutsedge plant response rating (purple nutsedge; [1]): 3
- Nutsedge plant response rating (purple nutsedge; [10]): 5
- Nutsedge plant response rating (purple nutsedge; [2]): 0
- Plant response rating, Nutsedge (purple nutsedge; [11]): 0
- Plant response rating, Nutsedge (purple nutsedge; [12]): 2
- Nutsedge plant response rating (purple nutsedge; [5]): 6
- Nutsedge plant response rating (purple nutsedge; [6]): 3
- Nutsedge plant response rating (purple nutsedge; [8]): 6
- Corn plant response rating (corn; [1]): 2
- Corn plant response rating (corn; [10]): 5
- Corn plant response rating (corn; [2]): 4
- Plant response rating, Corn (corn; [11]): 7
- Plant response rating, Corn (corn; [12]): 9
- Corn plant response rating (corn; [5]): 9
- Corn plant response rating (corn; [6]): 2
- Corn plant response rating (corn; [8]): 6
- Soybean plant response rating (soybean; [1]): 4
- Soybean plant response rating (soybean; [2]): 0
- Plant response rating, Soybean (soybean; [11]): 3
- Plant response rating, Soybean (soybean; [12]): 5
- Soybean plant response rating (soybean; [5]): 8
- Soybean plant response rating (soybean; [6]): 3
- Plant response rating, Soybean (soybean; [18]): 4
- Soybean plant response rating (soybean; [8]): 5
- Velvetleaf plant response rating (velvetleaf; [1]): 5
- Velvetleaf plant response rating (velvetleaf; [2]): 7
- Velvetleaf plant response rating (0 to 10 scale) (velvetleaf; [3]): 10
- Plant response rating, Velvetleaf (velvetleaf; [4]): 10
- Velvetleaf plant response rating (velvetleaf; [5]): 10
- Velvetleaf plant response rating (velvetleaf; [6]): 4
- Plant response rating, Velvetleaf (velvetleaf; [7]): 5
- Velvetleaf plant response rating (velvetleaf; [8]): 7
- Blackgrass plant response rating (blackgrass; [1]): 7
- Blackgrass plant response rating (blackgrass; [10]): 8
- Blackgrass plant response rating (blackgrass; [2]): 9
- Plant response rating, Blackgrass (blackgrass; [11]): 10
- Plant response rating, Blackgrass (blackgrass; [12]): 10
- Blackgrass plant response rating (blackgrass; [5]): 10
- Blackgrass plant response rating (blackgrass; [6]): 7
- Blackgrass plant response rating (blackgrass; [8]): 8
- Sugarbeets plant response rating (sugar beet; [1]): 2
- Sugarbeets plant response rating (sugar beet; [2]): 4
- Sugarbeets plant response rating (0 to 10 scale) (sugar beet; [3]): 7
- Plant response rating, Sugarbeets (sugar beet; [4]): 10
- Sugarbeets plant response rating (sugar beet; [5]): 10
- Sugarbeets plant response rating (sugar beet; [6]): 0
- Plant response rating, Sugarbeets (sugar beet; [7]): 5
- Sugarbeets plant response rating (sugar beet; [8]): 7
